Patent publication US10071981B2, “Method of priming plants against abiotic stress factors” (Research Foundation of The City University of New York, priority 2014, dated 2018)

Tested on: Medicago truncatula plants
Assay: Hydrogen peroxide content in leaves of drought-stressed plants
Format: in vivo
Conditions: 100 μM foliar spraying
Protocol: Mature (40 d) Medicago truncatula ecotype Jemalong A17 plants were used for the purposes of this study. These were grown in soil medium under controlled, optimal growth conditions and were then subjected to drought stress. Drought was imposed by withholding watering for 9 d (for detailed growth and stress conditions see Filippou et al., 2011). Both NOSH and NOSH-aspirin were applied at 100 μM concentration by foliar spraying at the start of stress imposition. The hybrid donors were diluted in 70% (v/v) and 30% (v/v) methanol, 20% (v/v) acetone or 20% (v/v) DMSO. Cellular damage was evaluated by lipid peroxidation levels (TBARS content) and hydrogen peroxide (H2O2) content as previously described (Filippou et al., 2011; Tanou et al., 2012), while osmoprotective capacity was evaluated by proline content (ninhydrin assay) as previously described (Antoniou et al., 2013). Real-time RT-PCR gene expression analysis was carried out using a Biorad IQ5 thermocycler as previously described (Filippou et al., 2013b). Relative quantification of gene expression and statistical analysis of all qRT-PCR data (pairwise fixed reallocation randomization test) were performed using the REST software according to Pfaffl et al. (2002). The actin 11 gene was used as a housekeeping reference gene. […]

## O=C(CCCO[N+](=O)[O-])Oc1ccccc1C(=O)Oc1ccc(-c2cc(=S)ss2)cc1 [NOSH-A]
30% (v/v) MetOH, vs drought-stress samples, FIG. 5
  H2O2 levels: significantly lower H2O2 levels
70% (v/v) MetOH, drought 9 d, FIG. 4
  H2O2 content: significantly reversed
